Data as given in patent US9655884B2, “Antiparasitic use of isoxazoline compounds” (Intervet Inc., priority 2013, dated 2017).

Tested on: adult fleas (C. felis)
Experiment: In vitro membrane feeding exposure to assess flea reproduction
Design: species or system Ctenocephalides felis
Details: for Pupal Development Control / Larval Emergence: eggs of parent fleas fed 0.09 ng/mL in blood
Protocol: A membrane feeding method [Wade S E, Georgi J R. Survival and reproduction of artificially fed cat fleas, Ctenocephalides felis Bouché (Siphonaptera: Pulicidae). J Med Entomol 1988, 25: 186-190.] was modified to assess the impact of fluralaner exposure on flea reproduction. Defibrinated sheep blood was prepared in a series of dilutions with fluralaner to obtain concentrations between 50.0 and 0.09 ng/mL. These test solutions were prepared twice and each preparation was tested in duplicate resulting in a total of 4 replicates per concentration, along with a fluralaner negative solvent control (a solvent concentration equivalent to that of the highest concentrated fluralaner test solution) and an untreated control.
Unfed adult fleas (C. felis; 20 males and 20 females) were placed into a plastic unit that was then closed with a gauze lid. A grid inside the plastic unit divided the unit into 2 chambers, an upper chamber for flea feeding and a lower chamber for egg collection. Test or control blood preparations (2 ml) were placed in an artificial membrane closed glass tube that was then placed on the plastic unit as the food source. Feeding units were incubated (38° C. and 60% RH) for 10 days. Test and negative control blood preparations were freshly prepared and exchanged (on days 1, 3, 5, and 8) to permit continuous flea feeding. Fleas were transferred into fresh plastic units on Days 5 and 8 to facilitate egg collection. Collected eggs were mixed with flea nourishment medium and incubated (28° C. and 80% RH) in darkness for 22 (±3) days to enable flea development. Parameters recorded were flea survival, oviposition control, egg hatchability, pupa control, flea-emergence control and reproduction inhibition.

[1] = 3.13 ng/mL in blood, exposure day 3
[2] = 3.13 ng/mL in blood, exposure day 4
[3] = 3.13 ng/mL in blood, exposure day 5
[4] = 3.13 ng/mL in blood, exposure day 8
[5] = 3.13 ng/mL in blood, exposure day 9
[6] = 3.13 ng/mL in blood, exposure day 10
[7] = 6.25 ng/mL in blood, exposure day 3
[8] = 6.25 ng/mL in blood, exposure day 4
[9] = 6.25 ng/mL in blood, exposure day 5
[10] = 6.25 ng/mL in blood, exposure day 8
[11] = 6.25 ng/mL in blood, exposure day 9
[12] = 6.25 ng/mL in blood, exposure day 10
[13] = 12.5 ng/mL in blood, exposure day 3
[14] = 12.5 ng/mL in blood, exposure day 4
[15] = 12.5 ng/mL in blood, exposure day 5
[16] = 12.5 ng/mL in blood, exposure day 8
[17] = 12.5 ng/mL in blood, exposure day 9
[18] = 12.5 ng/mL in blood, exposure day 10
[19] = 25.0 ng/mL in blood, exposure day 3
[20] = 25.0 ng/mL in blood, exposure day 4
[21] = 25.0 ng/mL in blood, exposure day 5
[22] = 50.0 ng/mL in blood, exposure day 3
[23] = 50.0 ng/mL in blood, exposure day 4
[24] = 50.0 ng/mL in blood, exposure day 5

Cc1cc(C2=NOC(c3cc(Cl)cc(Cl)c3)(C(F)(F)F)C2)ccc1C(=O)NCC(=O)NCC(F)(F)F (centres unmarked) [fluralaner, 4-[5-(3,5-Dichlorophenyl)-5-trifluoromethyl-4,5-dihydroisoxazol-3-yl]-2-methyl-N-[(2,2,2-trifluoro-ethylcarbamoyl)-methyl]-benzamide]
Flea Survival (3.13 ng/mL in blood, exposure day 2): 100% | Flea Survival [1]: 100% | Oviposition Control [1]: 32.0% | Flea Survival [2]: 98.7% | Oviposition Control [2]: 35.7% | Flea Survival [3]: 97.8% | Oviposition Control [3]: 43.1% | Flea Survival [4]: 83.1% | Oviposition Control [4]: 70.5% | Flea Survival [5]: 79.5% | Oviposition Control [5]: 59.9% | Flea Survival [6]: 78.8% | Oviposition Control [6]: 62.0% | Oviposition Control (6.25 ng/mL in blood, arithmetic mean of exposure days): 80.6% | Flea Survival (6.25 ng/mL in blood, exposure day 2): 100% | Flea Survival [7]: 100% | Oviposition Control [7]: 82.6% | Flea Survival [8]: 97.5% | Oviposition Control [8]: 85.9% | Flea Survival [9]: 92.8% | Oviposition Control [9]: 81.3% | Flea Survival [10]: 85.0% | Oviposition Control [10]: 79.9% | Flea Survival [11]: 73.1% | Oviposition Control [11]: 67.5% | Flea Survival [12]: 69.7% | Oviposition Control [12]: 86.4% | Oviposition Control (12.5 ng/mL in blood, arithmetic mean of exposure days): 99.6% | Flea Survival (12.5 ng/mL in blood, exposure day 2): 100% | Flea Survival [13]: 100% | Oviposition Control [13]: 99.6% | Flea Survival [14]: 67.5% | Oviposition Control [14]: 100% | Flea Survival [15]: 38.9% | Oviposition Control [15]: 100% | Flea Survival [16]: 21.7% | Oviposition Control [16]: 98.9% | Flea Survival [17]: 17.9% | Oviposition Control [17]: 99.1% | Flea Survival [18]: 12.3% | Oviposition Control [18]: 100% | Oviposition Control (25.0 ng/mL in blood, arithmetic mean of exposure days): 100% | Flea Survival (25.0 ng/mL in blood, exposure day 2): 90.6% | Flea Survival [19]: 67.5% | Oviposition Control [19]: 100% | Flea Survival [20]: 31.9% | Oviposition Control [20]: 100% | Flea Survival [21]: 11.3% | Oviposition Control [21]: 100% | Flea Survival (25.0 ng/mL in blood, exposure day 8): 0% | Flea Survival (25.0 ng/mL in blood, exposure day 9): 0% | Flea Survival (25.0 ng/mL in blood, exposure day 10): 0% | Oviposition Control (50.0 ng/mL in blood, arithmetic mean of exposure days): 100% | Flea Survival (50.0 ng/mL in blood, exposure day 2): 78.1% | Flea Survival [22]: 20.0% | Oviposition Control [22]: 100% | Flea Survival [23]: 8.7% | Oviposition Control [23]: 100% | Flea Survival [24]: 1.2% | Oviposition Control [24]: 100% | Flea Survival (50.0 ng/mL in blood, exposure day 8): 0% | Flea Survival (50.0 ng/mL in blood, exposure day 9): 0% | Flea Survival (50.0 ng/mL in blood, exposure day 10): 0% | Pupal Development Control (arithmetic mean of exposure days): 4.0% | Larval Emergence (exposure day 3): yes | Pupal Development Control (exposure day 3): 9.1% | Larval Emergence (exposure day 4): yes | Pupal Development Control (exposure day 4): 4.5% | Larval Emergence (exposure day 5): yes | Pupal Development Control (exposure day 5): 1.4% | Larval Emergence (exposure day 8): yes
